Legend:
[1] = system: E. coli SR481 (aroA-) carrying pMON8152; experiment: Growth on minimal medium containing glyphosate; format: cell-based
Experimental: The heterologous expression system was tested with a known variant to see if glyphosate resistant variants of petunia EPSPS could be selected. […] That was achieved by replacing the 660 bp EcoRI-HindIII region from both vectors with the 660 bp EcoRI-HindIII region from pMON9566 which contained the glycine (101) to alanine mutation.

[2] = biological target: petunia EPSP synthase with alanine for the first glycine of the conserved region (Petunia hybrida, UniProt P11043, G170A); experiment: Glyphosate sensitivity of EPSP synthase variant; format: biochemical; conditions: relative to wild type
petunia EPSP synthase with alanine for the first glycine of the conserved region, sequence (P11043 73-516 G170A): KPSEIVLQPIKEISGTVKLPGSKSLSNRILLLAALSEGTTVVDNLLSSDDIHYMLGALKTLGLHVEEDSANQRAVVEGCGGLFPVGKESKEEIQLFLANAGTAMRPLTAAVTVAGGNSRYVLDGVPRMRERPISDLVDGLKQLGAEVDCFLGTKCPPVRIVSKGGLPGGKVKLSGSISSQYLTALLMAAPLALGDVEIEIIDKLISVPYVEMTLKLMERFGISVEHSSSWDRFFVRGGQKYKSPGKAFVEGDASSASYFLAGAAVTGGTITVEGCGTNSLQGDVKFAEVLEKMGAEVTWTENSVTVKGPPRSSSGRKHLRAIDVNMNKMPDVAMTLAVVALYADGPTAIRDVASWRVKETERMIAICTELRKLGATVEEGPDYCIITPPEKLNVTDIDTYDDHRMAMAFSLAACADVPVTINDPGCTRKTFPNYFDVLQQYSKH

[3] = biological target: T1, variant petunia EPSP synthase with glycine (101) to alanine and glycine (144) to asparagine substitutions (Petunia hybrida, UniProt P11043, G173A/G216N); experiment: EPSP synthase kinetic constants (Ki glyphosate, Km PEP); format: biochemical
T1 construct: GGT codon for glycine (144) in the mature petunia EPSP synthase
T1 sequence (P11043 73-516 G173A/G216N): as the sequence (P11043 73-516 G170A) above, with A98G, G101A, G144N counted along it
Experimental: (§1) Kinetic constants (appKm PEP and appKi glyphosate) were determined for EPSP synthase as described below. Substrate kinetic parameters were determined at pH 7.0 in 50 mM HEPES (N-[2-hydroxyethyl]piperazine-N'-[2-ethanesulfonic acid]) buffer in the presence of 2 mM S3P and varying amounts of ^14 C-PEP (10 μM-400 μM), for 2.0 minutes at 25° C. Reactions were quenched with 100 mM Na Acetate in ethanol, pH 4.5, centrifuged and analyzed for product EPSP formation by HPLC with flow radioactivity detection. HPLC conditions were 0.35 MKPi, pH 6.5, on a Synchropak AX100 column at 1.0 ml/min.

[4] = system: E. coli JM101 culture #215 (pMON8186); experiment: Growth curve analysis in liquid MOPS medium with glyphosate; format: cell-based; conditions: MOPS medium containing 10 mM glyphosate, 37° C.
Experimental: This growth curve analysis functioned as a tertiary screen and was performed in the following way:
Glyphosate resistant colonies were picked off the selection plates and inoculated individually into precultures containing 1 ml of MOPS medium and 50 μg/ml carbenicillin. The precultures were then grown to saturation by shaking the cultures overnight at 37° C. The next morning the density of each culture was determined by withdrawing a 100 μl aliquot from each and diluting it 10 fold with the addition of 900 μl MOPS medium, then reading the optical density at a wavelength of 660 nm in a spectrophotometer. The saturated precultures were then diluted to 1% by adding 50 μl from each saturated preculture to 5 ml of MOPS media containing 0, 5 or 10 mM glyphosate. The diluted precultures were grown in glass culture tubes fitted with stainless steel closures, rotating on a wheel at 37° C. The glass culture tubes were designed for direct reading in a Klett-Summerson photoelectric colorimeter, which was used to monitor the growth of the bacterial cultures at approximately 3 hour intervals.

[5] = system: E. coli SR481 (aroA-) carrying pMON8105; experiment: Growth on minimal medium containing glyphosate; format: cell-based
Source text: (§2) Chromosomal DNA isolated from the E. coli strain SR20 (GM42 hfr, his-, dam3-) was digested completely with MboI. The MboI fragments were cloned into the BglII site of plasmid pMON9564. The BglII site is in a multilinker located upstream of the promoterless petunia EPSPS coding sequence which had been tailored for expression in E. coli. The ligation mixture was used to transform E. coli strain SR481, the aroA- variant lacking endogenous EPSPS activity. Forty-one colonies were obtained which contained MboI fragments with sufficient promoter activity to express the Petunia EPSPS cDNA, complementing the aroA defect in SR481 and supporting cell growth on minimal medium. The 41 colonies were streaked individually onto MOPS minimal medium containing glyphosate at 1, 5, 10, 15 and 20 μM concentrations. The amount of cell growth on increasing concentrations of glyphosate was used as a measure of the relative promoter strength of each MboI fragment expressing the petunia EPSPS coding sequence. To further characterize each of the MboI promoter fragments, plasmid miniprep DNA was prepared by the alkaline lysis method from each of the 41 colonies and was digested individually with EcoRI, BamHI, HindIII, ClaI and NcoI. Those restriction enzymes were chosen because they cut within, or flank the petunia EPSPS coding sequence and would be used for mobilizing mutagenized fragments. Therefore, ideal promoter fragments would not contain restriction sites for any of those enzymes. There were 8 MboI fragments with varying degrees of promoter activity which lacked restriction sites for the enzymes listed above. Two of them, pMON8105 and pMON8143, were selected for further characterization. Both plasmids complemented the aroA defect and supported the growth of SR481 on minimal medium containing up to 1 mM (pMON8105) and 20 mM (pMON8143) glyphosate.

[6] = system: E. coli SR481 (aroA-) carrying pMON8143; experiment: Growth on minimal medium containing glyphosate; format: cell-based
Source text: as §2

MP4 cells = experiment: Suspension culture of petunia cells in glyphosate medium; format: cell-based; conditions: MS media containing 0.5 mM glyphosate (sodium salt); estimated; read-out: cells which survived, of the starting population
Experimental: The starting cell line, designated as the MP4 line, was derived from a Mitchell diploid petunia (see e.g., Ausubel 1980). The MP4 cells were suspended in Murashige and Skoog (MS) culture media, (GIBCO, Grand Island, N.Y.) All transfers involved dispensing 10 ml of suspension cultures into 50 ml of fresh media. Cultivation periods until the next transfer ranged from 10 to 14 days, and were based on visual indications that the culture was approaching saturation.
Approximately 10 ml of saturated suspension culture (containing about 5×10^6 cells) were transferred into 50 ml of MS media containing 0.5 mM glyphosate. The sodium salt of glyphosate was used throughout the experiments described herein. The large majority of cells were unable to reproduce in the presence of the glyphosate. The cells which survived (estimated to be less than 1% of the starting population) were cultured in 0.5 mM glyphosate and transferred to fresh media containing glyphosate every 10 to 14 days.

[7] = biological target: T2, petunia EPSP synthase glycine (101) to alanine variant (Petunia hybrida, UniProt P11043, G173A); experiment: EPSP synthase kinetic constants (appKi glyphosate, appKm PEP); format: biochemical
T2 construct: made in house; host or cells: E. coli
T2 sequence (P11043 73-516 G173A): as the sequence (P11043 73-516 G170A) above, with A98G, G101A counted along it
Experimental: To an assay mix (40 μl) containing shikimate-3-phosphate (2 mM), ^14 C-phosphoenolpyruvate (1 mM, 1.2 mCi/mmol), ammonium molybdate (0.1 mM), potassium fluoride (5 mM) in 50 mM HEPES-KOH, pH 7, was added the extract and incubated at 25° C. for 2 mins. The reaction was quenched by the addition of 50 μl of 50 μl of 90% ethanol/0.1M acetic acid, pH 4.5. 70 μl of the reaction mixture was loaded on a SynchroPak AX100 HPLC column (0.4×25 cm) and the column was eluted with 0.5M potassium phosphate, pH 5.5 at 1 ml/min. The radioactivity of the eluent was monitored using a Radiomatic Flo-One Beta Instrument. (Radiomatics, Fla.). The EPSP synthase activity was determined by measurement of the conversion of ^14 C-PEP to ^14 C-EPSP synthase, both of which are resolved under the above conditions of chromatography. The protein content of the extract was determined by the method of Bradford (Biorad Labs, Calif.). The specific activity of the extract is expressed as nanomoles of EPSP synthase formed/min/mg protein.
as §1

[8] = biological target: wild type petunia EPSP synthase (Petunia hybrida, UniProt P11043); experiment: as above; format: biochemical
wild type petunia EPSP synthase, sequence (P11043 73-516): as the sequence (P11043 73-516 G170A) above, with A98G counted along it
Experimental: The reaction was quenched by the addition of 50 μl of 50 μl of 90% ethanol/0.1M acetic acid, pH 4.5. 70 μl of the reaction mixture was loaded on a SynchroPak AX100 HPLC column (0.4×25 cm) and the column was eluted with 0.5M potassium phosphate, pH 5.5 at 1 ml/min. The radioactivity of the eluent was monitored using a Radiomatic Flo-One Beta Instrument. […] The protein content of the extract was determined by the method of Bradford (Biorad Labs, Calif.). The specific activity of the extract is expressed as nanomoles of EPSP synthase formed/min/mg protein.

**Q.** Which results are given for `O=C(O)CNCP(=O)(O)O` [glyphosate, N-phosphonomethylglycine]?
**A.** glyphosate concentration up to which growth on minimal medium is supported [1]: up to 50 mM; change in glyphosate sensitivity [2]: no attendant changes in glyphosate sensitivity; Ki for glyphosate [3]: 960 µM; Ki/Km ([3]; Ki glyphosate / Km PEP): 10.5; time of growth to saturation [4]: ≤ 11 h; growth on 1 mM glyphosate ([5]; 1 mM glyphosate): could not support the growth; glyphosate concentration up to which growth on minimal medium is supported ([5]; minimal medium): up to 1 mM; glyphosate concentration up to which growth on minimal medium is supported [6]: ≤ 20 mM; viability at 500 µM (MP4 cells): < 1%; Ki [7]: 2000 µM; Ki/Km ratio ([7]; Ki glyphosate / Km PEP): 10.0; Ki [8]: 0.4 µM

— patent US5310667A (priority 1989, dated 1994)
